In US6235712A, “Non-aqueous polar aprotic peptide formulations” (ALZA Corporation, priority 2000, dated 2001):

Legend:
[1] = Gelation of peptides in non-aqueous polar aprotic solvents; format: physicochemical; details: formulated in non-aqueous polar aprotic solvents; no gelation even after 12 months at 37° C.
Procedure: No gelation was found even after 12 months at 37° C. […] Thus, these solvents have an anti-gellant effect.

[2] = aggregation, gelation and fibrillation; cited from earlier work

Compound | gelation [1] | physical stability in aqueous solution [2]
CC(C)C[C@H](NC(=O)[C@@H](COC(C)(C)C)NC(=O)[C@H](Cc1ccc(O)cc1)NC(=O)[C@H](CO)NC(=O)[C@H](Cc1c[nH]c2ccccc12)NC(=O)[C@H](Cc1cnc[nH]1)NC(=O)[C@@H]1CCC(=O)N1)C(=O)N[C@@H](CCCNC(=N)N)C(=O)N1CCC[C@H]1C(=O)NNC(N)=O [goserelin] | do not gel | –
CCNC(=O)[C@@H]1CCCN1C(=O)[C@H](CCCNC(=N)N)NC(=O)[C@H](CC(C)C)NC(=O)[C@@H](CC(C)C)NC(=O)[C@H](Cc1ccc(O)cc1)NC(=O)[C@H](CO)NC(=O)[C@H](Cc1c[nH]c2ccccc12)NC(=O)[C@H](Cc1c[nH]cn1)NC(=O)[C@@H]1CCC(=O)N1 [leuprolide] | do not gel | –
calcitonin | do not gel | physically unstable
